Assay results taken from patent US5624911A, “Ether derivatives of pseudopterosin” (The Regents of the University of California, priority 1995, dated 1997).
Where two headings read alike, the source gives them in different places.

B1: IL-1-α: Recombinant Human Interleukin-1-α was obtained from R&D Systems, Minneapolis, Minn. (protein, UniProt P01583 113-271, looked up)
Interleukin-1 alpha: SAPFSFLSNVKYNFMRIIKYEFILNDALNQSIIRANDQYLTAAALHNLDEAVKFDMGAYKSSKDDAKITVILRISKTQLYVTAQDEDQPVLLKEMPEIPKTITGSETNLLFFWETHGTKNYFTSVAHPNLFIATKQDYWVCLAGGPPSITDFQILENQA
B2: human plasminogen: Plasminogen (from human plasma) was obtained from Athens Research and Technology, Athens, Ga. (protein, UniProt P00747 20-810, looked up)
Plasminogen: EPLDDYVNTQGASLFSVTKKQLGAGSIEECAAKCEEDEEFTCRAFQYHSKEQQCVIMAENRKSSIIIRMRDVVLFEKKVYLSECKTGNGKNYRGTMSKTKNGITCQKWSSTSPHRPRFSPATHPSEGLEENYCRNPDNDPQGPWCYTTDPEKRYDYCDILECEEECMHCSGENYDGKISKTMSGLECQAWDSQSPHAHGYIPSKFPNKNLKKNYCRNPDRELRPWCFTTDPNKRWELCDIPRCTTPPPSSGPTYQCLKGTGENYRGNVAVTVSGHTCQHWSAQTPHTHNRTPENFPCKNLDENYCRNPDGKRAPWCHTTNSQVRWEYCKIPSCDSSPVSTEQLAPTAPPELTPVVQDCYHGDGQSYRGTSSTTTTGKKCQSWSSMTPHRHQKTPENYPNAGLTMNYCRNPDADKGPWCFTTDPSVRWEYCNLKKCSGTEASVVAPPPVVLLPDVETPSEEDCMFGNGKGYRGKRATTVTGTPCQDWAAQEPHRHSIFTPETNPRAGLEKNYCRNPDGDVGGPWCYTTNPRKLYDYCDVPQCAAPSFDCGKPQVEPKKCPGRVVGGCVAHPHSWPWQVSLRTRFGMHFCGGTLISPEWVLTAAHCLEKSPRPSSYKVILGAHQEVNLEPHVQEIEVSRLFLEPTRKDIALLKLSSPAVITDKVIPACLPSPNYVVADRTECFITGWGETQGTFGAGLLKEAQLPVIENKVCNRYEFLNGRVQSTELCAGHLAGGTDSCQGDSGGPLVCFEKDKYILQGVTSWGLGCARPNKPGVYVRVSRFVTWIEGVMRNN

Experiments:
[1] = system: edema induced by phorbol 12-myristate 13-acetate (PMA) in ears of mice; assay: Mouse Ear Edema Assay (PMA-induced edema, topical); type: in vivo; conditions: for % Inhibition (of edema relative to PMA control) / Mean Edema (mgs ± SEM): topical, 50 μg/ear with PMA 2 μg/ear, 3 hours 20 minutes; for Mean Edema (mgs ± SEM): PMA controls 17.7 ± 0.6
Method: The pseudopterosin ethers were topically applied in acetone to the inside pinnae of the ears of mice in a solution containing the edema-causing irritant, phorbol 12-myristate 13-acetate (PMA). PMA alone (2 μg/ear) or in combination with 50 μg/ear of test compound was applied to the left ears (5 mice per treatment group) and acetone is applied to all right ears. After 3 hours 20 minutes incubation, the mice were sacrificed, the ears removed, and bores taken and weighed. Edema was measured by subtracting the weight of the right ear (acetone control) from the weight of the left ear (treated). Results were recorded as percent decrease (inhibition) or percent increase (potentiation) in edema relative to the PMA control group edema.

[2] = system: bovine articular cartilage explants; assay: Inhibition of IL-1-induced Cartilage Degradation in the Presence of Human Plasminogen (35S glycosaminoglycan release); type: cell-based, bovine (calf); conditions: for % Inhibition @ 30 μM (Explant) / IC50: plasminogen 0.4 μM plus IL-1 0.5 ng/mL, 96 hours; for IC50: explant
Method: (§1) The ether derivatives were also tested to determine their usefulness in inhibiting degradation of cartilage. Bovine articular cartilage explants labeled with ^35 Sulfate were used to monitor chondrocyte-mediated cartilage degradation in the presence of plasminogen, at concentrations similar to that measured in synovial fluid (0.4 μM), cartilage is extremely sensitive to the effects of IL-1-stimulated degradation. Stimulated chondrocytes produce and activate plasminogen activator (uPA), causing conversion of plasminogen to plasmin. Plasmin is not only an effective activator of the MMP's, but also an effective proteoglycanase. Inhibitors were added to the assay concomitant with the cytokine IL-1, and their effect was monitored by measuring differences in ^35 S glycosaminoglycan release, as compared to appropriate controls.
(§2) Plasminogen (from human plasma) was obtained from Athens Research and Technology, Athens, Ga. Recombinant Human Interleukin-1-α was obtained from R&D Systems, Minneapolis, Minn. DMEM was obtained from Gibco, Grand Island, New York. ^35 S-Sodium Sulfate was obtained from Amersham, Arlington Heights, Ill.
(§3) Bovine (calf) radiocarpal joints were acquired from a local abbatoir immediately after sacrifice and transported on ice. The joints were then washed thoroughly and placed in ice containing approximately 25% Povidine (10% Povidone-lodine topical solution). The joints were then dissected in a sterile hood using good sterile technique. Media (DMEM containing 4.5 g/L D-Glucose and L-Glutamine, without sodium pyruvate) was supplemented with HEPES buffer and sodium bicarbonate, and the pH adjusted to 7.4. The media was further supplemented with penicillin and streptomycin (100 units/mL and 100 μg/ml, respectively) and 50 μg/mL L-ascorbic acid. The cartilage surfaces were exposed, and the synovial fluid was wiped away with sterile gauze. A sterile cork-borer with a diameter of 3.5 millimeters was used to remove uniform plugs of cartilage. Proper orientation was maintained by distinguishing the underlying bony layer in the plugs (only the articulating surface of the cartilage plugs were used in the experiments). The plugs were placed in a sterile flask, washed four times with 50 mL of fresh media, and then placed in an incubator (37 degrees centigrade, with 5% CO2 /95% air, with adequate humidity) and allowed to equilibrate for 1 hour. A 1 mm thick slice of the articulating surface was sliced off of each individual cartilage plug, using a specially designed template to obtain uniform thickness. The cartilage disks were then labeled en mass with ^35 Sulfate at a concentration of approximately 10 μCi/mL for approximately 72-96 hours, with hand-stirring every few hours. Subsequent to labeling, explants were equilibrated with fresh media each 48 hours. The total time for labeling/equilibration was approximately one week from acquisition/dissection of tissue.
(§4) For testing of ether derivatives, individual explants were transferred to 96-well plates containing 250μL of media with or without Plasminogen plus IL-1, and with or without ether derivative. […] All other groups in any assay would contain ether derivative along with concomitant plasminogen plus IL-1. Five samples were routinely used, with concentrations of plasminogen plus IL-1 of 0.4 μM and 0.5 ng/mL, respectively. The assay is allowed to incubate for 96 hours, prior to counting a 50 μL sample of supernatant from each well. A 50 μL sample of a papain digest of each explant is also counted for each respective well. From the counts released into the supernatant over four days, and the total counts present, the data can be expressed as % glycosaminoglycan (GAG) over the four days). The media alone % GAG release values are subtracted from all other values where plasminogen plus IL-1 were present (media alone represents the background for the system). […]

[3] = system: bovine articular cartilage explants; assay: Interleukin-1 mediated cartilage degradation, with or without plasminogen (35S-GAG release); type: cell-based, bovine (calf); conditions: for degradation by plasminogen alone (in words): 0.4 μM human plasminogen alone
Method: as §1, §2, §3, §4

Row | Molecule | % Inhibition (of edema relative to PMA control) [1] [%] | Mean Edema (mgs ± SEM) [1] [mgs] | % Inhibition @ 30 μM (Explant) [2] | IC50 ([2]; Bos taurus, read-out: IC50) [µM] | further results
1 | CC(C)=C[C@H]1C[C@H](C)[C@H]2CC[C@H](C)c3c(O[C@@H]4OC[C@@H](O)[C@H](O)[C@H]4O)c(OCc4ccccc4)c(C)c1c32 [WF 332, Pseudopterosin A Benzyl ether] | 68.3 | 5.6 ± 1.0 | 57% | 26 | 
2 | CCCCCOc1c(C)c2c3c(c1O[C@@H]1OC[C@@H](O)[C@H](O)[C@H]1O)[C@@H](C)CC[C@@H]3[C@@H](C)C[C@@H]2C=C(C)C [WF 333, Pseudopterosin A Pentyl ether] | 62.2 | 6.7 ± 1.0 | 58% | > 40 | 
3 | CCCCCCCCCCOc1c(C)c2c3c(c1O[C@@H]1OC[C@@H](O)[C@H](O)[C@H]1O)[C@@H](C)CC[C@@H]3[C@@H](C)C[C@@H]2C=C(C)C [WF 334, Pseudopterosin A Decanyl ether] | 60.7 | 7.0 ± 0.9 | Inconclusive |  | IC50 [2]: Inconclusive
4 | CCCCCCCCCCCCCCCCCCOc1c(C)c2c3c(c1O[C@@H]1OC[C@@H](O)[C@H](O)[C@H]1O)[C@@H](C)CC[C@@H]3[C@@H](C)C[C@@H]2C=C(C)C [WF 335, Pseudopterosin A Octadecanyl ether] | 54.4 | 8.0 ± 1.2 | 27% | > 30 | 
5 | CC(C)=C[C@H]1C[C@H](C)[C@H]2CC[C@H](C)c3c(O[C@@H]4OC[C@@H](O)[C@H](O)[C@H]4O)c(OCCCCO)c(C)c1c32 [WF 336, Pseudopterosin A Butanol ether] | 69.9 | 5.3 ± 0.9 | 73% | 19 | 
6 | CC(C)=C[C@H]1C[C@H](C)[C@H]2CC[C@H](C)c3c(O[C@@H]4OC[C@@H](O)[C@H](O)[C@H]4O)c(OCC(N)=O)c(C)c1c32 [WF 337, Pseudopterosin A Acetamide ether] | 52.6 | 8.4 ± 1.4 | 74% | 15 | 
7 | bis pseudopterosin A pentanyl diether [WF 338] | 6.7 | 16.5 ± 1.2 | 0% |  | anti-inflammatory activity (in words) ([1]; mouse ear edema, comparison compound): little if any anti-inflammatory activity; inhibition of explant degradation (in words) ([2]; as can be seen from TABLE 2): inhibited explant degradation, except for WF 338; IC50 ([2]; read-out: IC50): > 30 µM
8 | B1 |  |  |  |  | 35S-GAG release ([3]; IL-1-α 0.4 ng/mL plus plasminogen 0.4 μM, four day assay): approximately 50%; GAG release ([3]; IL-1-α 1 ng/mL plus 0.5 μM plasminogen): greater than 90%; increase in degradation over control ([3]; IL-1-α 2.5 ng/mL, without plasminogen): two-fold increase; release of 35S-labeled GAG ([3]; IL-1-α 10 ng/mL, without plasminogen): ~35%; dose dependence of degradation (in words) ([3]; IL-1-α, without plasminogen): induces degradation in bovine articular cartilage explants in a dose-dependent manner
9 | B2 |  |  |  |  | degradation by plasminogen alone (in words) [3]: does not induce any degradation above control levels; degradation by plasminogen alone (in words) ([3]; listed as plasminogen): same results as media alone
